pIC50: −log10 of the molar value.

The target in the experiment is recombinantly expressed human PARP-1 enzyme (Homo sapiens, UniProt P09874). Description: PARP enzyme assay (half-maximum inhibitor concentration). It is filed as biochemical. The settings on record: DNA-activated PARP-1, 200 μM NAD, tritium-labeled NAD incorporation, room temperature, 1 hour, pH 8.0. The protocol: Pharmacological Investigations PARP Enzyme Assay
Sequence of recombinantly expressed human PARP-1 enzyme (P09874 whole entry): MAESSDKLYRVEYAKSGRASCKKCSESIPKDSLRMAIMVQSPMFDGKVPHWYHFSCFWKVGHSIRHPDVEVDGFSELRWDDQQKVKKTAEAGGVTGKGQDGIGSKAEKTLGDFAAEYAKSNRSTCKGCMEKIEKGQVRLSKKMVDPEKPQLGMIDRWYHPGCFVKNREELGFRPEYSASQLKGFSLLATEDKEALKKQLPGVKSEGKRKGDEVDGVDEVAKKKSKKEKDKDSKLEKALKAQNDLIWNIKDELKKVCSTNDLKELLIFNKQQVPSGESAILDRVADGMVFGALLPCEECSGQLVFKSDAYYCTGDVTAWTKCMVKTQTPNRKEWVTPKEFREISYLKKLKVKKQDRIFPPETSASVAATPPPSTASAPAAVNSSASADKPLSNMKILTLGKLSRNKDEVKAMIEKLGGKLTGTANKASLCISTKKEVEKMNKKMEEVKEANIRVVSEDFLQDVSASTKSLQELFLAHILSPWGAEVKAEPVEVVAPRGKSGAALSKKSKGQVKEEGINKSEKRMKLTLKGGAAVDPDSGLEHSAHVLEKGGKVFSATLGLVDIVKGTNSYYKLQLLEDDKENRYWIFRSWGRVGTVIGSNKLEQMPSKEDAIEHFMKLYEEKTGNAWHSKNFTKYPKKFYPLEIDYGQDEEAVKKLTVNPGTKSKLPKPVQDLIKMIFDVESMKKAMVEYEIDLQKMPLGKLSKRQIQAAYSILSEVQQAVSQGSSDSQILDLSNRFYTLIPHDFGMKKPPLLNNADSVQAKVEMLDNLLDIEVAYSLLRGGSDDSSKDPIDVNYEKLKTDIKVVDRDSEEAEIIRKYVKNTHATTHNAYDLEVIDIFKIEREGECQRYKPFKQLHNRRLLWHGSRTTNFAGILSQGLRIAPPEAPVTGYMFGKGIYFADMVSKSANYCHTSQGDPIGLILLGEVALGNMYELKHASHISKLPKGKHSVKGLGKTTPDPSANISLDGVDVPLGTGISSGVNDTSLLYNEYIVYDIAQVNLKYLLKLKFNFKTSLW
The half-maximum inhibitor concentration is determined by incubating the substances to be tested with the DNA-activated, recombinantly expressed and purified PARP-1 enzyme. Specifically, various concentrations of the test substance are incubated in 50 μl of reaction solution, which contains 50 mM Tris, 5 mM MgCl2, 1 mM DTT, 200 μM NAD, 0.1 mCi/ml tritium-labeled NAD, 0.1 mg/ml DNA, 0.1 mg/ml histones, 2 μg/ml recombinantly expressed human PARP-1 enzyme, pH=8.0, at room temperature for 1 hour. The reaction is stopped by adding 150 μl of 20% trichloroacetic acid, and the radiolabeled protein constituents are precipitated. After incubation on ice for 10 minutes, the labeled, insoluble constituents are separated off through a glass fiber filter and, after washing with 20% trichloroacetic acid three times, the radioactivity incorporated by the PARP-1 enzyme is measured by radioluminescence.
IC-50 values were determined in this way for the following compounds: […]
Broadly, the pIC50 is the IC50 on a negative log10 scale, so that one unit is a factor of ten. For `O=C(NCCc1ccccc1)c1cncc(-c2c[nH]c(=O)c3c2CCCC3)c1` [Example 27, 5-(1-oxo-1,2,5,6,7,8-hexahydroisoquinolin-4-yl)-N-phenethyl-nicotinamide], the negative logarithm of the IC50 (pIC50) is 5.60.
With `CC(=O)Nc1ccc(CNC(=O)c2cncc(-c3c[nH]c(=O)c4c3CCCC4)c2)cc1` [Example 37, N-(4-acetylaminobenzyl)-5-(1-oxo-1,2,5,6,7,8-hexahydroisoquinolin-4-yl)nicotinamide], the negative logarithm of the IC50 (pIC50) was 5.39.
Turning to `Cc1nn(C)c(C)c1CNC(=O)c1cncc(-c2c[nH]c(=O)c3c2CCCC3)c1` [Example 35, 5-(1-oxo-1,2,5,6,7,8-hexahydroisoquinolin-4-yl)-N-(1,3,5-trimethyl-1H-pyrazol-4-ylmethyl)-nicotinamide], the pIC50 was 5.16.
As for `O=c1[nH]cc(-c2ccc(CNCc3ccccc3)o2)c2c1CCCC2` [Example 79, 4-[5-(benzylaminomethyl)furan-2-yl]-5,6,7,8-tetrahydro-2H-isoquinolin-1-one], the negative-log IC50 (pIC50) is 6.82.
The value for `CC(=O)Nc1ccc(S(=O)(=O)NCc2ccc(-c3c[nH]c(=O)c4c3CCCC4)o2)cc1` [Example 87, N-(4-{[5-(1-oxo-1,2,5,6,7,8-hexahydroisoquinolin-4-yl)furan-2-ylmethyl]sulfamoyl}phenyl)acetamide] was 5.42; that for `CC(=O)Nc1ccc(CNCc2ccc(-c3c[nH]c(=O)c4c3CCCC4)o2)cc1` [Example 75, N-[4-({[5-(1-oxo-1,2,5,6,7,8-hexahydroisoquinolin-4-yl)furan-2-ylmethyl]amino}methyl)phenyl]-acetamide] was 6.29.
The value for `CC(C)CC(=O)NCc1ccc(-c2c[nH]c(=O)c3c2CCCC3)o1` [Example 81, 3-methyl-N-[5-(1-oxo-1,2,5,6,7,8-hexahydroisoquinolin-4-yl)furan-2-ylmethyl]butyramide] was 5.97.
The value for `O=C(NCc1ccc(-c2c[nH]c(=O)c3c2CCCC3)o1)c1ccco1` [Example 82, N-[5-(1-oxo-1,2,5,6,7,8-hexahydroisoquinolin-4-yl)furan-2-ylmethyl]furan-2-carboxamide] was 6.34.
`Cc1[nH]c(=O)c2c(c1Nc1cccc(C(=O)N(C)C)c1)CCCC2` [Example 13, N,N-dimethyl-3-(3-methyl-1-oxo-1,2,5,6,7,8-hexahydroisoquinolin-4-ylamino)benzamide]: the negative-log IC50 (pIC50) was 7.10.
The result for `O=c1[nH]cc(Nc2cccc(CO)c2)c2c1CCCC2` [Example 8, 4-(3-hydroxymethylphenyl-amino)-5,6,7,8-tetrahydro-2H-isoquinolin-1-one] reads 6.21; that for `Cc1[nH]c(=O)c2c(c1-c1ccc(CNCc3cnn(C)c3)o1)CCCC2` [Example 52, 3-methyl-4-(5-{[(1-methyl-1H-pyrazol-4-ylmethyl)amino]methyl}-furan-2-yl)-5,6,7,8-tetrahydro-2H-isoquinolin-1-one], 6.48; that for `O=C(CNC(=O)c1cncc(-c2c[nH]c(=O)c3c2CCCC3)c1)c1ccccc1` [Example 26, 5-(1-oxo-1,2,5,6,7,8-hexahydroisoquinolin-4-yl)-N-(2-oxo-2-phenylethyl)nicotinamide], 5.83.
The result for `O=C(c1cccc(Nc2c[nH]c(=O)c3c2CCCC3)c1)N1CCCC1` [Example 21, 4-[3-(Pyrrolidin-1-carbonyl)phenylamino]-5,6,7,8-tetrahydro-2H-isoquinolin-1-one] reads 4.98.
The value for `O=c1[nH]cc(Nc2ccc(Cl)nc2)c2c1CCCC2` [Example 12, 4-(6-chloropyridin-3-ylamino)-5,6,7,8-tetrahydro-2H-isoquinolin-1-one] was 6.17.
Take `O=c1[nH]cc(Nc2nc(-c3ccncc3)cs2)c2c1CCCC2` [Example 3, 4-(4-pyridin-4-ylthiazol-2-ylamino)-5,6,7,8-tetrahydro-2H-isoquinolin-1-one]: the negative logarithm of the IC50 (pIC50) was 5.01.
The value for `O=C(NCC1CC(c2ccccc2)=NO1)c1cncc(-c2c[nH]c(=O)c3c2CCCC3)c1` (stereo not shown) [Example 41, 5-(1-oxo-1,2,5,6,7,8-hexahydroisoquinolin-4-yl)-N-(3-phenyl-4,5-dihydroisoxazol-5-ylmethyl)-nicotinamide] was 5.41.
Regarding `Cc1[nH]c(=O)c2c(c1Nc1cccc(OC(F)(F)F)c1)CCCC2` [Example 14, 3-methyl-4-(3-trifluoromethoxy-phenylamino)-5,6,7,8-tetrahydro-2H-isoquinolin-1-one], the pIC50 was 5.92.
The result for `O=c1[nH]cc(-c2ccc(CN3CCCC3c3ccccn3)o2)c2c1CCCC2` (stereo not shown) [Example 67, 4-[5-(2-pyridin-2-ylpyrrolidin-1-ylmethyl)furan-2-yl]-5,6,7,8-tetrahydro-2H-isoquinolin-1-one] reads 6.14.
`CNC(=O)c1cccc(Nc2c[nH]c(=O)c3c2CCCC3)c1` [Example 2, N-methyl-3-(1-oxo-1,2,5,6,7,8-hexahydroisoquinolin-4-ylamino)-benzamide]: the pIC50 was 6.57.
Consider `O=c1[nH]cc(-c2ccc(CNS(=O)(=O)c3ccc(Oc4ccccn4)cc3)o2)c2c1CCCC2` [Example 85, N-[5-(1-oxo-1,2,5,6,7,8-hexahydroisoquinolin-4-yl)furan-2-ylmethyl]-4-(pyridin-2-yloxy)benzenesulfonamide], for which the pIC50 was 5.79.
As for `NS(=O)(=O)c1ccc(CCNC(=O)c2cncc(-c3c[nH]c(=O)c4c3CCCC4)c2)cc1` [Example 44, 5-(1-oxo-1,2,5,6,7,8-hexahydroisoquinolin-4-yl)-N-[2-(4-sulf-amoylphenyl)ethyl]nicotinamide], the negative logarithm of the IC50 (pIC50) is 5.08.
Turning to `O=c1[nH]cc(-c2ccc(CNCc3ccccn3)o2)c2c1CCCC2` [Example 62, 4-(5-{[(pyridin-2-ylmethyl)amino]-methyl}furan-2-yl)-5,6,7,8-tetrahydro-2H-isoquinolin-1-one], the pIC50 is 5.82.
Consider `Cn1cc(CNCc2ccc(-c3c[nH]c(=O)c4c3CCCC4)o2)cn1` [Example 77, 4-(5-{[(1-methyl-1H-pyrazol-4-ylmethyl)amino]methyl}furan-2-yl)-5,6,7,8-tetrahydro-2H-isoquinolin-1-one], for which the negative logarithm of the IC50 (pIC50) was 6.74.
Turning to “4-(6-morpholin-4-ylpyridin-3-yl-amino)-5,6,7,8-tetrahydro-2H-isoquinolin-1-one [Example 4]”, the pIC50 was 5.20.
The value for `Cc1[nH]c(=O)c2c(c1-c1cccs1)CCCC2` [Example 18, 3-methyl-4-thiophen-2-yl-5,6,7,8-tetrahydro-2H-isoquinolin-1-one] was 6.42; that for `COc1ccccc1CNC(=O)c1cncc(-c2c[nH]c(=O)c3c2CCCC3)c1` [Example 46, N-(2-methoxybenzyl)-5-(1-oxo-1,2,5,6,7,8-hexahydroisoquinolin-4-yl)nicotinamide] was 5.50.
The value for `O=c1[nH]cc(-c2ccc(CNCc3ccncc3)o2)c2c1CCCC2` [Example 58, 4-(5-{[(pyridin-4-ylmethyl)amino]-methyl}furan-2-yl)-5,6,7,8-tetrahydro-2H-isoquinolin-1-one] was 5.90; that for `CN(Cc1ccncc1)C(=O)c1cncc(-c2c[nH]c(=O)c3c2CCCC3)c1` [Example 38, N-methyl-5-(1-oxo-1,2,5,6,7,8-hexahydroisoquinolin-4-yl)-N-pyridin-4-ylmethylnicotinamide] was 5.50; that for `CCOc1cccc(Nc2c[nH]c(=O)c3c2CCCC3)c1` [Example 11, 4-(3-ethoxyphenylamino)-5,6,7,8-tetrahydro-2H-isoquinolin-1-one] was 6.41.
The value for `O=C(NCCc1cccnc1)c1cccc(Nc2c[nH]c(=O)c3c2CCCC3)c1` [Example 23, 3-(1-Oxo-1,2,5,6,7,8-hexahydroisoquinolin-4-ylamino)-N-(2-pyridin-3-ylethyl)benzamide] was 5.70; that for `CN(C)CCNCc1ccc(-c2c[nH]c(=O)c3c2CCCC3)o1` [Example 65, 4-{5-[(2-dimethylaminoethyl-amino)methyl]furan-2-yl}-5,6,7,8-tetrahydro-2H-isoquinolin-1-one] was 6.34.
As to `O=C(NCc1ccc(-c2c[nH]c(=O)c3c2CCCC3)o1)C(F)(F)F` [Example 80, 2,2,2-trifluoro-N-[5-(1-oxo-1,2,5,6,7,8-hexahydroisoquinolin-4-yl)furan-2-ylmethyl]acetamide], the negative-log IC50 (pIC50) was 6.27.
The value for `O=c1[nH]cc(-c2ccc(CN3CCCC3)o2)c2c1CCCC2` [Example 61, 4-(5-pyrrolidin-1-ylmethylfuran-2-yl)-5,6,7,8-tetrahydro-2H-isoquinolin-1-one] was 6.96; that for `Cc1[nH]c(=O)c2c(c1-c1ccc(CNCc3ccccc3)o1)CCCC2` [Example 51, 4-[5-(benzylaminomethyl)furan-2-yl]-3-methyl-5,6,7,8-tetrahydro-2H-isoquinolin-1-one] was 6.23.
`COc1cccc(CNC(=O)c2cncc(-c3c[nH]c(=O)c4c3CCCC4)c2)c1OC` [Example 47, N-(2,3-dimethoxybenzyl)-5-(1-oxo-1,2,5,6,7,8-hexahydroisoquinolin-4-yl)nicotinamide]: the pIC50 is 5.48.
For `Cn1ccnc1CN(Cc1ccccc1)Cc1ccc(-c2c[nH]c(=O)c3c2CCCC3)o1` [Example 69, 4-(5-{[benzyl(1-methyl-1H-imidazol-2-ylmethyl)amino]-methyl}furan-2-yl)-5,6,7,8-tetrahydro-2H-isoquinolin-1-one], the negative-log IC50 (pIC50) was 5.56.
The result for `O=c1[nH]cc(-c2ccc(CNCCN3CCCC3)o2)c2c1CCCC2` [Example 57, 4-{5-[(2-pyrrolidin-1-ylethylamino)-methyl]furan-2-yl}-5,6,7,8-tetrahydro-2H-isoquinolin-1-one] reads 6.38.
